Data as given in ChEMBL document CHEMBL3045649, “Green approach towards synthesis of substituted pyrazole-1,4-dihydro,9-oxa,1,2,6,8-tetrazacyclopentano[b]naphthalene-5-one derivatives as antimycobacterial agents” (2013).
Converted amounts (≈) assume the structure as drawn.

How the values were obtained:
Format in all cases: functional
Mycolicibacterium phlei [1] = experiment: Antimycobacterial activity against Mycobacterium phlei NCIM 2240 assessed as growth inhibition after 24 hr by agar well diffusion method; settings: NCIM 2240, 24 h
[2] = test system: Mycolicibacterium smegmatis; experiment: Antimycobacterial activity against Mycobacterium smegmatis NCIM 5138 assessed as growth inhibition after 24 hr by agar well diffusion method; settings: NCIM 5138, 24 h
[3] = test system: Mycobacterium tuberculosis; experiment: Antimycobacterial activity against Mycobacterium tuberculosis MTCC 300 assessed as growth inhibition after 24 hr by agar well diffusion method; settings: MTCC 300, 24 h
Mycolicibacterium phlei [4] = experiment: Antimycobacterial activity against Mycobacterium phlei NCIM 2240 assessed as growth inhibition at 1 mg/ml after 24 hr by agar well diffusion method; settings: NCIM 2240, 24 h, read-out: DIZ
Mycolicibacterium phlei [5] = experiment: Antimycobacterial activity against Mycobacterium phlei NCIM 2240 assessed as growth inhibition at 0.5 mg/ml after 24 hr by agar well diffusion method; settings: NCIM 2240, 24 h, read-out: DIZ
Mycolicibacterium phlei [6] = experiment: Antimycobacterial activity against Mycobacterium phlei NCIM 2240 assessed as growth inhibition at 0.1 mg/ml after 24 hr by agar well diffusion method; settings: NCIM 2240, 24 h, read-out: DIZ
[7] = test system: Mycolicibacterium smegmatis; experiment: Antimycobacterial activity against Mycobacterium smegmatis NCIM 5138 assessed as growth inhibition at 0.1 mg/ml after 24 hr by agar well diffusion method; settings: NCIM 5138, 24 h, read-out: DIZ
[8] = test system: Mycolicibacterium smegmatis; experiment: Antimycobacterial activity against Mycobacterium smegmatis NCIM 5138 assessed as growth inhibition at 0.5 mg/ml after 24 hr by agar well diffusion method; settings: NCIM 5138, 24 h, read-out: DIZ
[9] = test system: Mycolicibacterium smegmatis; experiment: Antimycobacterial activity against Mycobacterium smegmatis NCIM 5138 assessed as growth inhibition at 1 mg/ml after 24 hr by agar well diffusion method; settings: NCIM 5138, 24 h, read-out: DIZ
[10] = test system: Mycobacterium tuberculosis; experiment: Antimycobacterial activity against Mycobacterium tuberculosis MTCC 300 assessed as growth inhibition at 1 mg/ml after 24 hr by agar well diffusion method; settings: MTCC 300, 24 h, read-out: DIZ
[11] = test system: Mycobacterium tuberculosis; experiment: Antimycobacterial activity against Mycobacterium tuberculosis MTCC 300 assessed as growth inhibition at 0.5 mg/ml after 24 hr by agar well diffusion method; settings: MTCC 300, 24 h, read-out: DIZ
[12] = test system: Mycobacterium tuberculosis; experiment: Antimycobacterial activity against Mycobacterium tuberculosis MTCC 300 assessed as growth inhibition at 0.1 mg/ml after 24 hr by agar well diffusion method; settings: MTCC 300, 24 h, read-out: DIZ

| SMILES | MIC (Mycolicibacterium phlei [1]) [µg/mL] | MIC [2] [µg/mL] | MIC [3] [µg/mL] | zone of inhibition at 1000 µg/mL (Mycolicibacterium phlei [4]) [mm] | zone of inhibition at 500 µg/mL (Mycolicibacterium phlei [5]) [mm] | zone of inhibition at 100 µg/mL (Mycolicibacterium phlei [6]) [mm] | zone of inhibition at 100 µg/mL [7] [mm] | zone of inhibition at 500 µg/mL [8] [mm] | zone of inhibition at 1000 µg/mL [9] [mm] | zone of inhibition at 1000 µg/mL [10] [mm] | zone of inhibition at 500 µg/mL [11] [mm] | zone of inhibition at 100 µg/mL [12] [mm] |
| --- | --- | --- | --- | --- | --- | --- | --- | --- | --- | --- | --- | --- |
| CO[C@H]1/C=C/O[C@@]2(C)Oc3c(C)c(O)c4c(O)c(c(/C=N/N5CCN(C)CC5)c(O)c4c3C2=O)NC(=O)/C(C)=C\C=C\[C@H](C)[C@H](O)[C@@H](C)[C@@H](O)[C@@H](C)[C@H](OC(C)=O)[C@@H]1C [RIFAMPIN] | 40 (≈ 48.6 µM) | 480 (≈ 583 µM) | 280 (≈ 340 µM) | – | – | – | – | – | – | – | – | – |
| Cc1nn(-c2ccccc2)c2c1C(c1cn(-c3ccccc3)nc1-c1ccc(F)cc1)C1=C(NC(C)(c3cc(Cl)cc(I)c3O)NC1=O)O2 (stereo not given) | 60 (≈ 76.4 µM) | 60 (≈ 76.4 µM) | – | 8.6 | 7.1 | 5.8 | 5.6 | 9 | 12 | – | – | – |
| Cc1nn(-c2ccccc2)c2c1C(c1cn(-c3ccccc3)nc1-c1ccc(Cl)cc1)C1=C(NC(C)(c3cc(Cl)ccc3O)NC1=O)O2 (stereo not given) | 100 (≈ 148 µM) | 100 (≈ 148 µM) | 1000 (≈ 1480 µM) | 3.5 | 2.4 | 2 | 1.5 | 2.3 | 3.6 | 1.9 | – | – |
| Cc1nn(-c2ccccc2)c2c1C(c1cn(-c3ccccc3)nc1-c1ccc(F)cc1)C1=C(NC(C)(c3cc(Cl)ccc3O)NC1=O)O2 (stereo not given) | – | 100 (≈ 152 µM) | – | – | – | – | 1.9 | 2.2 | 3.2 | – | – | – |
| COc1ccc(-c2nn(-c3ccccc3)cc2C2C3=C(NC(C)(c4cc(Cl)ccc4O)NC3=O)Oc3c2c(C)nn3-c2ccccc2)cc1 (stereo not given) | 1000 (≈ 1490 µM) | 90 (≈ 134 µM) | – | 2 | – | – | 2.8 | 4.2 | 5.2 | – | – | – |
| Cc1nn(-c2ccccc2)c2c1C(c1cn(-c3ccccc3)nc1-c1ccc(F)cc1)C1=C(NC(C)(c3ccc(O)c(Cl)c3O)NC1=O)O2 (stereo not given) | 50 (≈ 74.1 µM) | 70 (≈ 104 µM) | 1000 (≈ 1480 µM) | 2.5 | 1.5 | 3.4 | 4.5 | 7.6 | 11.5 | 2 | – | – |
| Cc1nn(-c2ccccc2)c2c1C(c1cn(-c3ccccc3)nc1-c1ccc(Cl)cc1)C1=C(NC(C)(c3cc(Cl)cc(I)c3O)NC1=O)O2 (stereo not given) | 50 (≈ 62.4 µM) | 70 (≈ 87.3 µM) | – | 2.8 | 1.5 | – | 4.2 | 5 | 5.4 | – | – | – |
| COc1ccc(-c2nn(-c3ccccc3)cc2C2C3=C(NC(C)(c4cc(Cl)cc(I)c4O)NC3=O)Oc3c2c(C)nn3-c2ccccc2)cc1 (stereo not given) | 70 (≈ 87.8 µM) | 50 (≈ 62.7 µM) | 100 (≈ 125 µM) | 8.8 | 6.2 | 4 | 8 | 10.8 | 12 | 3.6 | 2.5 | 2 |
| Cc1nn(-c2ccccc2)c2c1C(c1cn(-c3ccccc3)nc1-c1ccc(Cl)cc1)C1=C(NC(C)(c3ccc(O)c(Cl)c3O)NC1=O)O2 (stereo not given) | 90 (≈ 130 µM) | 70 (≈ 101 µM) | 1000 (≈ 1450 µM) | 6.5 | 4 | 2.5 | 3.8 | 5.2 | 6.8 | 1.5 | – | – |
| Cc1nn(-c2ccccc2)c2c1C(c1cn(-c3ccccc3)nc1-c1ccc(F)cc1)C1=C(NC(C)(c3ccc(O)cc3O)NC1=O)O2 (stereo not given) | 50 (≈ 78 µM) | 40 (≈ 62.4 µM) | – | 2.2 | 1.5 | – | 4.1 | 5.5 | 6.5 | – | – | – |
| Cc1nn(-c2ccccc2)c2c1C(c1cn(-c3ccccc3)nc1-c1ccc(Cl)cc1)C1=C(NC(C)(c3ccc(O)cc3O)NC1=O)O2 (stereo not given) | 70 (≈ 107 µM) | 100 (≈ 152 µM) | – | 4.5 | 3.8 | 2.5 | 1.6 | 1.9 | 3.2 | – | – | – |
